The values that follow come from paper PMC9945734 (BMC Medicine, 2023).

Structures can show the parent of a compound that is named as a salt. Where two headings read alike, the source gives them in different places.

The test deals with PC-3-KQ cells. The experiment in a line: 3D spheroid invasion assay and screening of FDA-approved drugs. The test is classed as cell-based, human. As to conditions: for activity at 0.01 µM / activity at 0.1 µM / activity at 1 µM / activity at 10 µM: 72 h, read-out: Invasion rates (%) of each drug’s multiple concentrations; for activity at 0.01 µM / activity at 0.1 µM / activity at 1 µM / activity at 10 µM / Invasion rates (%) of each drug’s multiple concentrations (μM): compared to vehicle control. In outline:
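Cells were clustered into spheroids by centrifugation and grown 3 days, then embedded in matrigel-medium containing drug on day 4 and cultured another 3 days. Drugs were screened at 10 μM first, then at 0–10 μM, in duplicate wells. Invasion area is total area minus core sphere area from phase-contrast images.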

[1] abbreviates: Homo sapiens, 0.01 μM (first column so headed), secondary screening of 87 hit compounds (Table S1).
The mark [2] stands for this setting: Homo sapiens, 0.01 μM (second column so headed), secondary screening of 87 hit compounds (Table S1).
Setting [3] is: Homo sapiens, 0.1 μM, secondary screening of 87 hit compounds (Table S1).
The mark [4] stands for this setting: Homo sapiens, 1 μM, secondary screening of 87 hit compounds (Table S1).
Where [5] appears, read: Homo sapiens, 10 μM, secondary screening of 87 hit compounds (Table S1).
[6] abbreviates: 0.01 μM (first column so headed), secondary screening of 87 hit compounds (Table S1).
Setting [7] is: 0.01 μM (second column so headed), secondary screening of 87 hit compounds (Table S1).
Setting [8] is: 0.1 μM, secondary screening of 87 hit compounds (Table S1).
Where [9] appears, read: 1 μM, secondary screening of 87 hit compounds (Table S1).
Where [10] appears, read: 10 μM, secondary screening of 87 hit compounds (Table S1).
The mark [11] stands for this setting: Homo sapiens, 0.01 μM (first column so headed), third screening of 25 hit compounds (Table S2).
Setting [12] is: Homo sapiens, 0.01 μM (second column so headed), third screening of 25 hit compounds (Table S2).
The mark [13] stands for this setting: Homo sapiens, 0.1 μM, third screening of 25 hit compounds (Table S2).
Setting [14] is: Homo sapiens, 1 μM, third screening of 25 hit compounds (Table S2).
The mark [15] stands for this setting: Homo sapiens, 10 μM, third screening of 25 hit compounds (Table S2).

The inhibition is the relative decrease from the control value, in per cent.

As to `Nc1c2ccccc2nc2ccccc12` [9-Aminoacridine], the activity at 0.01 µM by setting is: under setting [1], 96%; under setting [2], 93.3%. In addition, the activity at 0.1 µM under setting [3] worked out at 94.7%. Further, the activity at 1 µM under setting [4] came out at 86.4%. Besides, the activity at 10 µM under setting [5] came to 1.63%.

Regarding `COc1ccc(CN(CCN(C)C)c2ccccn2)cc1` [Mepyramine maleate], the activity at 0.01 µM runs as follows: under setting [1], 101%; under setting [2], 98.3%. In addition, the activity at 0.1 µM under setting [3] is 99.1%. For the same compound, the activity at 1 µM under setting [4] is 97.9%. The activity at 10 µM under setting [5] stood at 48.9%.

Regarding `COc1cccc2c1C(=O)c1c(O)c3c(c(O)c1C2=O)C[C@@](O)(C(=O)CO)C[C@@H]3O[C@H]1C[C@H](N)[C@H](O[C@@H]2CCCCO2)[C@H](C)O1.Cl` [Pirarubicin (Hydrochloride)], the “Invasion rates (%) of each drug’s multiple concentrations (μM)” value (from here on “Invasion rates (%)”) by setting is: under setting [6], 87.28%; under setting [7], 91.46%; under setting [8], 86.00%; under setting [9], 81.69%; under setting [10], 10.50%.

Take `CCCCCCCCCCCC[N+](C)(C)CCOc1ccccc1.[Br-]` [Domiphen (bromide)]: the “Invasion rates (%)” value by setting is: under setting [6], 89.87%; under setting [7], 94.08%; under setting [8], 85.67%; under setting [9], 77.63%; under setting [10], 66.00%.

In the case of `CC(=O)OC[C@H]1O[C@@H]([S-])[C@H](OC(C)=O)[C@@H](OC(C)=O)[C@@H]1OC(C)=O.CCP(CC)CC.[Au+]` [Auranofin], the “Invasion rates (%)” value is, setting by setting: under setting [6], 98.81%; (0.01 μM (first column so headed), third screening of 25 hit compounds (Table S2)) 93.68%; under setting [7], 100.66%; (0.01 μM (second column so headed), third screening of 25 hit compounds (Table S2)) 97.35%; under setting [8], 95.62%; (0.1 μM, third screening of 25 hit compounds (Table S2)) 88.21%. Further, the “Invasion rates (%)” value is 2.03% under setting [9]; 2.34% (1 μM, third screening of 25 hit compounds (Table S2)); 0.38% under setting [10]; 0.76% (10 μM, third screening of 25 hit compounds (Table S2)).

`CCO[C@H]1O[C@@H]2O[C@@]3(C)CC[C@H]4[C@H](C)CC[C@@H]([C@H]1C)[C@@]24OO3` [Artemotil]: the activity at 0.01 µM runs as follows: under setting [1], 96.2%; under setting [2], 95.5%. Moreover, the activity at 0.1 µM under setting [3] worked out at 90.7%. The activity at 1 µM under setting [4] was 85.7%. In addition, the activity at 10 µM under setting [5] is 0.51%.

On to `COc1cccc2c1C(=O)c1c(O)c3c(c(O)c1C2=O)C[C@@](O)(C(C)=O)C[C@@H]3O[C@H]1C[C@H](N)[C@H](O)[C@H](C)O1.Cl` [Daunorubicin (Hydrochloride)], for which the “Invasion rates (%)” value runs as follows: under setting [6], 95.45%; under setting [7], 98.71%; under setting [8], 93.45%; under setting [9], 64.89%; under setting [10], 2.25%.

As for `Cc1ncc([N+](=O)[O-])n1CC(O)CCl` (stereo not drawn) [Ornidazole (Levo-)], the “Invasion rates (%)” value runs as follows: under setting [6], 90.43%; under setting [7], 93.59%; under setting [8], 87.04%; under setting [9], 71.01%; under setting [10], 4.84%.

On to `CO[C@@]12[C@H](COC(N)=O)C3=C(C(=O)C(C)=C(N)C3=O)N1C[C@@H]1N[C@@H]12` [Mitomycin C], for which the activity at 0.01 µM under setting [1] was 4.12%, the activity at 0.01 µM under setting [11] came out at 41.6%, the activity at 0.01 µM under setting [2] was 39.7% and the activity at 0.01 µM under setting [12] was determined as 93.2%. Moreover, the activity at 0.1 µM stood at 4.9% under setting [3] and 2.22% under setting [13]. Moreover, the activity at 1 µM came out at 3.56% under setting [4] and 1.49% under setting [14]. The activity at 10 µM stood at 2.5% under setting [5] and 0.24% under setting [15]. In addition, the inhibition at 0.1 µM (Homo sapiens, at 0.1 μM, read-out: inhibition of cell invasion) is over 50%.

On to `Cc1nc(Nc2ncc(C(=O)Nc3c(C)cccc3Cl)s2)cc(N2CCN(CCO)CC2)n1` [Dasatinib], for which the activity at 0.01 µM under setting [1] was 46.2%, the activity at 0.01 µM under setting [11] stood at 95.1%, the activity at 0.01 µM under setting [2] worked out at 49.7% and the activity at 0.01 µM under setting [12] is 97.7%. For the same compound, the activity at 0.1 µM stood at 37.7% under setting [3] and 83.4% under setting [13]. Further, the activity at 1 µM turned out to be 37.1% under setting [4] and 71.7% under setting [14]. The activity at 10 µM was determined as 15.1% under setting [5] and 0.9% under setting [15].

As for `CCCCCCCCN=c1ccn(CCCCCCCCCCn2ccc(=NCCCCCCCC)cc2)cc1.Cl.Cl` [Octenidine (dihydrochloride)], the “Invasion rates (%)” value stood at 97.90% under setting [6]; 100.69% under setting [7]; 97.53% under setting [8]; 95.54% under setting [9]; 46.51% under setting [10].

On to `CO[C@@H]1[C@H](N(C)C(=O)c2ccccc2)C[C@H]2O[C@]1(C)n1c3ccccc3c3c4c(c5c6ccccc6n2c5c31)C(=O)NC4` [Midostaurin], for which the activity at 0.01 µM amounted to 97.5% under setting [1] and 98.7% under setting [2]. In addition, under setting [3], the activity at 0.1 µM was 96%. Also, under setting [4], the activity at 1 µM was found to be 95.8%. Further, under setting [5], the activity at 10 µM came out at 34.3%.

For Daptomycin, the “Invasion rates (%)” value reads like this: under setting [6], 96.29%; under setting [7], 96.99%; under setting [8], 95.71%; under setting [9], 88.47%; under setting [10], 1.26%.

For `Cc1ncc([N+](=O)[O-])n1C[C@@H](CN1CCOCC1)OP(=O)(O)O` [Dextrorotation nimorazole phosphate ester], the “Invasion rates (%)” value under setting [6] is given as 97.64%; the “Invasion rates (%)” value under setting [7] was 99.79%; the “Invasion rates (%)” value under setting [8] is reported as 97.40%; the “Invasion rates (%)” value under setting [9] is 85.31%; the “Invasion rates (%)” value under setting [10] stood at 35.28%.

Regarding `CC(=O)NC[C@H]1CN(c2ccc(N3CCOCC3)c(F)c2)C(=O)O1` [Linezolid], the activity at 0.01 µM reads like this: under setting [1], 94.4%; under setting [2], 96.6%. Moreover, the activity at 0.1 µM under setting [3] came out at 80%. Further, under setting [4], the activity at 1 µM worked out at 64.5%. Under setting [5], the activity at 10 µM was determined as 3.51%.

As for `COc1cc([C@@H]2c3cc4c(cc3[C@@H](O[C@@H]3O[C@@H]5CO[C@@H](c6cccs6)O[C@H]5[C@H](O)[C@H]3O)[C@H]3COC(=O)[C@H]23)OCO4)cc(OC)c1O` [Teniposide], the activity at 0.01 µM was 93.1% under setting [1] and 91.8% under setting [2]. Under setting [3], the activity at 0.1 µM was 85%. For the same compound, the activity at 1 µM under setting [4] turned out to be 77.2%. Under setting [5], the activity at 10 µM worked out at 3.21%.

As for `CC(C)C[C@H](NC(=O)CNC(=O)c1cc(Cl)ccc1Cl)B(O)O` [Ixazomib], the activity at 0.01 µM turned out to be 35.2% under setting [1], 83.1% under setting [11], 76.3% under setting [2] and 95.7% under setting [12]. In addition, the activity at 0.1 µM runs as follows: under setting [3], 22.3%; under setting [13], 76.1%. In addition, the activity at 1 µM stood at 3.86% under setting [4] and 0.53% under setting [14]. Besides, the activity at 10 µM is, setting by setting: under setting [5], 1.01%; under setting [15], 0.3%.

`Cc1cc(Nc2ncc(Cl)c(Nc3ccccc3S(=O)(=O)C(C)C)n2)c(OC(C)C)cc1C1CCNCC1.Cl.Cl` [Ceritinib dihydrochloride]: the “Invasion rates (%)” value under setting [6] was 88.46%; the “Invasion rates (%)” value under setting [7] was found to be 86.07%; the “Invasion rates (%)” value under setting [8] is reported as 92.06%; the “Invasion rates (%)” value under setting [9] is 86.82%; the “Invasion rates (%)” value under setting [10] worked out at 39.86%.
